In US12721815B2, “Freeze-dried exosome composition and uses thereof” (AVECIN-Biopharma Oy, priority 2022, dated 2026):

How the values were obtained:
[1] = Lyophilization of exosomes with different cryoprotectants of Table 1 (BCA kit, TEM, NTA); format: physicochemical; details: FIG. 4
Procedure: The protein concentration of isolated exosomes is measured by BCA protein assay kit. Isolated exosomes were characterized by fluorescent staining, Transmission electron microscopy (TEM), and Nanoparticle Tracking Analysis (NTA).
Different cryoprotectant components namely trehalose, mannitol, sorbitol, sucrose, glucose and HA (both low Mw (LW) and high Mw (HMW)), either alone or in combination with HA or glycine (see Table 1) were tested for exosome viability outcome after lyophilization. PBS (290 mOsm/kg) was used as the solvent. The LMW HA used for the examples described herein is LMW HA having a Mw lower than 10 kDa. Isolated exosomes (1 mg/ml) were dissolved in PBS solution and then mixed with cryoprotectant solution in the ratio of 1 part exosomes to 1, 3, 5, or 10 parts of cryoprotectant.
Cryoprotectant solutions were prepared using phosphate-buffered saline (PBS) while the overall osmolality of the lyophilization solutions was maintained at 290 mOsm/kg. Isolated exosomes (10^10-10^11 particle/ml) were suspended in cryoprotectant solution ranging from 1 part of exosome suspension with 3 parts of cryoprotectant solution, to, 3 parts of exosome suspension with 1 part of cryoprotectant solution. Exosomes were lyophilized and then morphology of retrieved exosomes was visualized by TEM while size and concentration were measured by NTA (see FIG. 4). […]

[2] = Freeze-drying apple exosomes using trehalose, LMW HA and their combination (TEM, NTA); format: physicochemical; details: rehydrated after freeze-drying, FIG. 5
Procedure: For TEM imaging, exosomes are fixed with 4.0% paraformaldehyde (PFA) in sodiumphosphate buffer and stained with 2% neutral uranyl acetate with embedding in uranyl acetate and methylcellulose mixture. Exosomes are viewed with transmission EM using Jeol JEM-1400 (Jeol Ltd., Tokyo, Japan) operating at 80 kV. Images are taken with Gatan Orius SC 1000B CCD-camera (Gatan Inc., USA) with 4008×2672 px image size and no binning.
Particle number and size distribution of the exosome is measured by NTA instrument LM14C (NanoSight LTD., London, UK) equipped with blue (404 nm, 70 mW) laser and sCMOS camera. Data are analysed with Nanosight software v3.0, using threshold 5 and gain 10.
To test the preservation of exosome functionality and integrity during the lyophilization process, two cryoprotectants (trehalose and LMW HA) in four different cryoprotectant combinations were used, namely: 50 mM trehalose, 100 mM trehalose, 5% LMW HA, and 50 mM trehalose +2.5% LMW HA. Lyophilization solutions were prepared using PBS. The overall osmolality of the lyophilization solutions was maintained at 290 mOsm/kg. For the freeze-drying experiments, isolated exosomes (10^10-10^11 particle/ml) were suspended in cryoprotectant solution. 5 ml of each sample was prepared. Each solution was divided into 3 polypropylene microcentrifuge tubes, each tube containing 1.2 ml of lyophilization solution supplied with exosomes. […]

human dermal fibroblasts [3] = test: Wound scratch assay (relative wound density); format: cell-based; details: FIG. 6(a)
Procedure: Human dermal fibroblasts are seeded in 96 well plates at 2.4×10^4 cells/well. A cell-free area is then created in a confluent monolayer by physical exclusion through mechanical damage using a […] pipette tip. The culture medium is replaced immediately with a fresh 0.5% EV-free serum-supplemented culture medium containing 100 μg/ml of each exosome preparation tested. Three positions per scratch are imaged for 48 hours. Relative wound density is analysed by measuring the wound area over the healing time. All scratch assays are performed in triplicate.

human dermal fibroblasts [4] = test: MTT assay (fibroblast proliferation); format: cell-based; details: FIG. 6(b)
Procedure: The effect of the exosomes on the proliferation of human dermal fibroblasts was measured by a 3-[4.5-Dimethylthiazol-2-yl]-2.5-diphenyltetrazolium bromide ([…]; Life technologies) assay. Briefly, human dermal fibroblast cells are seeded in 96-well plates at an initial density of 5×10^3 cells/well for 24 h and then are treated with 100 μg/mL of exosomes for 48 hours. Cells are incubated with 0.5 mg/mL of MTT for 3-5 h and then 100 μl DMSO is added to each well and the optical density is measured at 540 nm.

human dermal fibroblasts [5] = test: Collagen production, human collagen type I ELISA kit; format: cell-based; details: incubated 48 h, FIG. 6(c)
Procedure: Also, collagen production was measured using a human collagen type I ELIZA kit. Human dermal fibroblasts were incubated with the exosome samples for 48 h. 100 μl of cell culture media was collected from each sample and incubated with 100 μl of biotinylated detection antibody for 1 h at 37° C. Samples were then washed and incubated with 100 μl of horseradish peroxidase (HRP) conjugate working solution. Stop solution was added and optical density was measured at 450 nm with a Plate Reader.

Compound | exosome concentration, morphology, aggregation after lyophilization (result in words) [1] | aggregation, size and concentration of lyophilized apple exosomes (result in words) [2] | relative wound density, lyophilised versus non-lyophilised exosomes (result in words) (human dermal fibroblasts [3]) | fibroblast proliferation, lyophilised versus non-lyophilised exosomes (result in words) (human dermal fibroblasts [4]) | collagen production by fibroblasts (result in words) (human dermal fibroblasts [5])
OC[C@H]1O[C@H](O[C@H]2O[C@H](CO)[C@@H](O)[C@H](O)[C@H]2O)[C@H](O)[C@@H](O)[C@@H]1O [trehalose, Trehalose] | best results as a single component cryoprotectant | no exosome aggregation |  |  | 
Hyaluronic acid (LMW) [hyaluronic acid at low-molecular-weight] |  |  | positive role | positive role | positive role
